Measurements taken from US20240391871A1, “SUBSTITUTED HYDROXYMETHYL PYRROLIDINES AND MEDICAL USES THEREOF” (ATROGI AB, priority 2021, published 2024).
Structures can show the parent of a compound that is named as a salt.

What was measured:
[1] = test system: Intracellular cAMP levels; experiment: Measurement of intracellular cAMP levels in differentiated L6 cells; format: cell-based; conditions: Rattus norvegicus, L6, 0.25 h, compound 1×10^−5 M, 15 min, read-out: Biological example 2: intracellular cAMP levels, activity compared to that of isoproterenol
Description: (§1) L6-myoblasts were grown in Dulbecco's Modified Eagle's Medium (DMEM) containing 1 g/L glucose supplemented with 10% fetal bovine serum, 2 mM L-Glutamine, 50 U/mL penicillin, 50 μg/mL streptomycin and 10 mM HEPES. Cells were plated at 1×10^5 cells per mL in 24-well plates. After reaching 90% confluence the cells were grown in medium containing 2% FBS for 7 days where upon cells differentiated into myotubes.
Differentiated cells were serum-starved overnight and stimulated with an agonist, final concentration 1×10^−5 M, for 15 min in stimulation buffer (HBSS supplemented with 1% BSA, 5 mM HEPES and 1 mM IBMX, pH 7.4). The medium was aspirated and 100 μL of 95% EtOH was added to each well of the 24-well plate and cells were kept at −20° C. overnight. The EtOH was allowed to evaporate and 500 μL of lysis buffer (1% BSA, 5 mM HEPES and 0.3% Tween-20, pH 7.4) was added to each well. The plate was kept at −80° C. for 30 min and then at −20° C. until the day of detection when the samples were thawed. Intracellular cAMP levels were detected using an alpha screen cAMP kit (6760635D from Perkin Elmer). The activity for each compound is compared to that of isoproterenol.

L6-myotubes = experiment: Glucose uptake (3H-2-deoxyglucose) in differentiated L6-myotubes; format: cell-based; conditions: compound 1×10^−5 M; for Emax at 10 µM: read-out: Biological example 1: glucose uptake, activity compared to that of isoproterenol
Description: as §1
Differentiated L6-myotubes were serum-starved overnight in medium containing 0.5% fatty-acid free BSA and stimulated with an agonist, with a final concentration of 1×10^−5 M. After 1 h 40 min the cells were washed with warm glucose free medium or PBS twice and another portion of agonist was added to the glucose free medium. After 20 min the cells were exposed to 50 nM ^3H-2-deoxyglucose for 10 min before washed with ice cold glucose free medium or PBS three times and lysed with 0.2 M NaOH, 400 μL/well, for 1 h at 60° C. The cell lysate was mixed with 4 mL scintillation buffer (Emulsifier Safe, Perkin Elmer) and the radioactivity was detected in a β-counter (Tri-Carb 4810TR, Perkin Elmer). The activity for each compound is compared to that of isoproterenol.

Structure (SMILES): CO[C@H]1CC[C@H](C[C@@]2(C)CC[C@H]([C@H](O)c3cccc(F)c3)N2)CC1 [Example 17, (R)-(3-Fluorophenyl)((2R,5R)-5-(((1r,4R)-4-methoxycyclohexyl)methyl)-5-methylpyrrolidin-2-yl)methanol]
- Emax at 10 µM [1]: 25 to 50%
- Emax at 10 µM (L6-myotubes): > 75%

Structure (SMILES): CO[C@H]1CC[C@H](C[C@@]2(C)CC[C@H]([C@@H](O)c3cccc(F)c3)N2)CC1 [Example 18, (S)-(3-Fluorophenyl)(2R,5R)-5-(((1r,4R)-4-methoxycyclohexyl)methyl)-5-methylpyrrolidin-2-yl)methanol hydrochloride]
- Emax at 10 µM [1]: < 25%
- Emax at 10 µM (L6-myotubes): 50 to 75%

Structure (SMILES): COc1ccc(C[C@@]2(C)CC[C@H]([C@H](O)c3cccc(F)c3)N2)cc1 [Example 19, (R)-(3-Fluorophenyl)((2R,5R)-5-(4-methoxybenzyl)-5-methylpyrrolidin-2-yl)methanol hydrochloride]
- Emax at 10 µM [1]: 25 to 50%
- Emax at 10 µM (L6-myotubes): > 75%

Structure (SMILES): COc1ccc(C[C@@]2(C)CC[C@H]([C@@H](O)c3cccc(F)c3)N2)cc1 [Example 20, (S)-(3-Fluorophenyl)((2R,5R)-5-(4-methoxybenzyl)-5-methylpyrrolidin-2-yl)methanol hydrochloride]
- Emax at 10 µM [1]: < 25%
- Emax at 10 µM (L6-myotubes): > 75%

Structure (SMILES): COc1ccc(C[C@@H]2CC[C@H]([C@H](O)c3cncc(F)c3)N2)cc1 [Example 21, (R)-(5-Fluoropyridin-3-yl)((2R,5S)-5-(4-methoxybenzyl)pyrrolidin-2-yl) -methanol dihydrochloride]
- Emax at 10 µM [1]: < 25%
- Emax at 10 µM (L6-myotubes): > 75%

Structure (SMILES): COc1ccc(C[C@@H]2CC[C@H]([C@@H](O)c3cncc(F)c3)N2)cc1 [Example 22, (S)-(5-Fluoropyridin-3-yl)((2R,5S)-5-(4-methoxybenzyl)pyrrolidin-2-yl)methanol dihydrochloride]
- Emax at 10 µM [1]: < 25%
- Emax at 10 µM (L6-myotubes): > 75%

Structure (SMILES): COc1ccc(C[C@H]2CC[C@H]([C@H](O)c3cncc(F)c3)N2)cc1 [Example 23, (R)-(5-Fluoropyridin-3-yl)(2R,5R)-5-(4-methoxybenzyl)pyrrolidin-2-yl)methanol dihydrochloride]
- Emax at 10 µM [1]: < 25%
- Emax at 10 µM (L6-myotubes): > 75%

Structure (SMILES): COc1ccc(C[C@H]2CC[C@H]([C@@H](O)c3cncc(F)c3)N2)cc1 [Example 24, (S)-(5-Fluoropyridin-3-yl)((2R,5R)-5-(4-methoxybenzyl)pyrrolidin-2-yl)methanol dihydrochloride]
- Emax at 10 µM [1]: < 25%
- Emax at 10 µM (L6-myotubes): > 75%

Structure (SMILES): O[C@H](c1cccc(F)c1)[C@H]1CC[C@@H](Cc2ccc(Cl)cc2)N1 [Example 25, (R)-((2R,5S)-5-(4-Chlorobenzyl)pyrrolidin-2-yl)(3-fluorophenyl)methanol hydrochloride]
- Emax at 10 µM [1]: < 25%
- Emax at 10 µM (L6-myotubes): > 75%

Structure (SMILES): O[C@@H](c1cccc(F)c1)[C@H]1CC[C@@H](Cc2ccc(Cl)cc2)N1 [Example 26, (S)-((2R,5S)-5-(4-Chlorobenzyl)pyrrolidin-2-yl)(3-fluorophenyl)methanol hydrochloride]
- Emax at 10 µM [1]: < 25%
- Emax at 10 µM (L6-myotubes): 50 to 75%

Structure (SMILES): O[C@H](c1cccc(F)c1)[C@H]1CC[C@H](Cc2ccc(Cl)cc2)N1 [Example 27, (R)-((2R,5R)-5-(4-Chlorobenzyl)pyrrolidin-2-yl)(3-fluorophenyl)methanol hydrochloride]
- Emax at 10 µM [1]: < 25%
- Emax at 10 µM (L6-myotubes): > 75%

Structure (SMILES): O[C@@H](c1cccc(F)c1)[C@H]1CC[C@H](Cc2ccc(Cl)cc2)N1 [Example 28, (S)-((2R,5R)-5-(4-Chlorobenzyl)pyrrolidin-2-yl)(3-fluorophenyl)methanol hydrochloride]
- Emax at 10 µM [1]: < 25%
- Emax at 10 µM (L6-myotubes): 50 to 75%

Structure (SMILES): O[C@H](c1cncc(F)c1)[C@H]1CC[C@@H](Cc2ccc(Cl)cc2)N1 [Example 29, (R)-((2R,5S)-5-(4-Chlorobenzyl)pyrrolidin-2-yl)(5-fluoropyridin-3-yl) -methanol dihydrochloride]
- Emax at 10 µM [1]: < 25%
- Emax at 10 µM (L6-myotubes): > 75%

Structure (SMILES): O[C@@H](c1cncc(F)c1)[C@H]1CC[C@@H](Cc2ccc(Cl)cc2)N1 [Example 30, (S)-(2R,5S)-5-(4-Chlorobenzyl)pyrrolidin-2-yl)(5-fluoropyridin-3-yl) -methanol dihydrochloride]
- Emax at 10 µM [1]: < 25%
- Emax at 10 µM (L6-myotubes): 50 to 75%

Structure (SMILES): O[C@H](c1cncc(F)c1)[C@H]1CC[C@H](Cc2ccc(Cl)cc2)N1 [Example 31, (R)-((2R,5R)-5-(4-Chlorobenzyl)pyrrolidin-2-yl)(5-fluoropyridin-3-yl) -methanol dihydrochloride]
- Emax at 10 µM [1]: < 25%
- Emax at 10 µM (L6-myotubes): > 75%

Structure (SMILES): O[C@@H](c1cncc(F)c1)[C@H]1CC[C@H](Cc2ccc(Cl)cc2)N1 [Example 32, (S)-(2R,5R)-5-(4-Chlorobenzyl)pyrrolidin-2-yl)(5-fluoropyridin-3-yl) -methanol dihydrochloride]
- Emax at 10 µM [1]: < 25%
- Emax at 10 µM (L6-myotubes): > 75%

Structure (SMILES): CC(=O)N(Cc1ccccc1)[C@H]1CC[C@@H](C[C@@H]2CC[C@H]([C@H](O)c3cccc(F)c3)N2)CC1 [Example 33, N-Benzyl-N-((1R,4s)-4-(((25,5R)-5-((R)-(3-fluorophenyl)(hydroxy)methyl) -pyrrolidin-2-yl)methyl)cyclohexyl)acetamide hydrochloride]
- Emax at 10 µM [1]: < 25%
- Emax at 10 µM (L6-myotubes): 50 to 75%

Structure (SMILES): CC(=O)N[C@H]1CC[C@H](C[C@@H]2CC[C@H]([C@H](O)c3cccc(F)c3)N2)CC1.Cl [Example 34, N-((1S,4r)-4-(((2S,5R)-5-((R)-(3-Fluorophenyl)(hydroxy)methyl)pyrrolidin-2-yl)methyl)cyclohexyl)acetamide hydrochloride]
- Emax at 10 µM [1]: < 25%
- Biological example 1: glucose uptake, activity compared to that of isoproterenol (L6-myotubes; hydrochloride): +++ (more than 75% of that of isoproterenol)

Structure (SMILES): CC(=O)N(Cc1ccccc1)[C@H]1CC[C@@H](C[C@@H]2CC[C@H]([C@@H](O)c3cccc(F)c3)N2)CC1 [Example 35, N-Benzyl-N-((1R,4s)-4-(((2S,5R)-5-((S)-(3-fluorophenyl)(hydroxy) -methyl)pyrrolidin-2-yl)methyl)cyclohexyl)acetamide hydrochloride]
- Emax at 10 µM [1]: < 25%
- Emax at 10 µM (L6-myotubes): 25 to 50%

Structure (SMILES): CC(=O)N[C@H]1CC[C@@H](C[C@@H]2CC[C@H]([C@@H](O)c3cccc(F)c3)N2)CC1 [Example 36, N-((1R,4s)-4-(((2S,5R)-5-((S)-(3-Fluorophenyl)(hydroxy)methyl)pyrrolidin-2-yl)methyl)cyclohexyl)acetamide]
- Emax at 10 µM [1]: < 25%
- Emax at 10 µM (L6-myotubes): 50 to 75%

Structure (SMILES): CS(=O)(=O)N(Cc1ccccc1)[C@H]1CC[C@@H](C[C@@H]2CC[C@H]([C@H](O)c3cccc(F)c3)N2)CC1 [Example 37, N-Benzyl-N-((1R,4s)-4-(((2S,5R)-5-((R)-(3-fluorophenyl)(hydroxy)methyl) -pyrrolidin-2-yl)methyl)cyclohexyl)methanesulfonamide hydrochloride]
- Emax at 10 µM [1]: < 25%
- Emax at 10 µM (L6-myotubes): 50 to 75%

Structure (SMILES): CS(=O)(=O)N[C@H]1CC[C@@H](C[C@@H]2CC[C@H]([C@H](O)c3cccc(F)c3)N2)CC1 [Example 38, N-((1R,4s)-4-(((2S,5R)-5-((R)-(3-Fluorophenyl)(hydroxy)methyl)pyrrolidin-2-yl)methyl)cyclohexyl)methanesulfonamide hydrochloride]
- Emax at 10 µM [1]: < 25%
- Emax at 10 µM (L6-myotubes): > 75%

Structure (SMILES): CS(=O)(=O)N(Cc1ccccc1)[C@H]1CC[C@@H](C[C@@H]2CC[C@H]([C@@H](O)c3cccc(F)c3)N2)CC1 [Example 39, N-Benzyl-N-((1R,4s)-4-(((2S,5R)-5-((S)-(3-fluorophenyl)(hydroxy) -methyl)pyrrolidin-2-yl)methyl)cyclohexyl)methanesulfonamide hydrochloride]
- Emax at 10 µM [1]: < 25%
- Emax at 10 µM (L6-myotubes): 50 to 75%

Structure (SMILES): CS(=O)(=O)N[C@H]1CC[C@@H](C[C@@H]2CC[C@H]([C@@H](O)c3cccc(F)c3)N2)CC1 [Example 40, N-((1R,4s)-4-(((2S,5R)-5-((S)-(3-fluorophenyl)(hydroxy)methyl)pyrrolidin-2-yl)methyl)cyclohexyl)methanesulfonamide hydrochloride]
- Emax at 10 µM [1]: < 25%
- Emax at 10 µM (L6-myotubes): 50 to 75%

Structure (SMILES): CC(=O)N(Cc1ccccc1)[C@H]1CC[C@H](C[C@@H]2CC[C@H]([C@H](O)c3cccc(F)c3)N2)CC1 [Example 41, N-Benzyl-N-((1S,4r)-4-(((2S,5R)-5-((R)-(3-fluorophenyl)(hydroxy) -methyl)pyrrolidin-2-yl)methyl)cyclohexyl)acetamide hydrochloride]
- Emax at 10 µM [1]: < 25%
- Emax at 10 µM (L6-myotubes): 25 to 50%
